Legend:
Experiment in all cases: solid-phase competition binding assay with biotinylated EGF on coated receptor ECD/Fc
[1] = target: T1, ErbB2 (Homo sapiens, UniProt P04626)
T1 construct: ErbB2 ECD/Fc chimera; with EGF (biotinylated)

[2] = target: T2, ErbB3 (Homo sapiens, UniProt P21860)
T2 construct: ErbB3 ECD/Fc chimera; with EGF (biotinylated)

[3] = target: T3, EGFR (Homo sapiens, UniProt P00533)
T3 construct: human-EGFR ECD/Fc chimera; with EGF (biotinylated)
T3 sequence (P00533 25-645 limits assumed): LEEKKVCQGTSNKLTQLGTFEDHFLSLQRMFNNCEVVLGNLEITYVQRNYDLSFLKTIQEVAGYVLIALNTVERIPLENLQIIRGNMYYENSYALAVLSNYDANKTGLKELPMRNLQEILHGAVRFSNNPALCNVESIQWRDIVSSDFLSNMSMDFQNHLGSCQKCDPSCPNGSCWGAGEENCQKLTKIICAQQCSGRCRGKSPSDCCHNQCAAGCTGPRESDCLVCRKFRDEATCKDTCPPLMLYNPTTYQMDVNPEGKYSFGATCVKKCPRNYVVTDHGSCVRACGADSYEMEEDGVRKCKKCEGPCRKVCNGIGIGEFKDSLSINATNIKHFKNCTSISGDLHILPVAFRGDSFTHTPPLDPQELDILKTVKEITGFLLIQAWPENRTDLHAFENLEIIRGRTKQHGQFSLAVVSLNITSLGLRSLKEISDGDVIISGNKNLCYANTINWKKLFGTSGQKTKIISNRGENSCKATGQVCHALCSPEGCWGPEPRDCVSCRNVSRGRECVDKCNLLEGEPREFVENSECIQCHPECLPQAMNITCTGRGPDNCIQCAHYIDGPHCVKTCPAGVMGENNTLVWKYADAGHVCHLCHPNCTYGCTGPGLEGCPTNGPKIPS
T3 sequence (P01133 971-1023 partner): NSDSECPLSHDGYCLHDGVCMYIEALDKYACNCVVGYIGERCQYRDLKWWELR

T1 sequence (P04626 23-652): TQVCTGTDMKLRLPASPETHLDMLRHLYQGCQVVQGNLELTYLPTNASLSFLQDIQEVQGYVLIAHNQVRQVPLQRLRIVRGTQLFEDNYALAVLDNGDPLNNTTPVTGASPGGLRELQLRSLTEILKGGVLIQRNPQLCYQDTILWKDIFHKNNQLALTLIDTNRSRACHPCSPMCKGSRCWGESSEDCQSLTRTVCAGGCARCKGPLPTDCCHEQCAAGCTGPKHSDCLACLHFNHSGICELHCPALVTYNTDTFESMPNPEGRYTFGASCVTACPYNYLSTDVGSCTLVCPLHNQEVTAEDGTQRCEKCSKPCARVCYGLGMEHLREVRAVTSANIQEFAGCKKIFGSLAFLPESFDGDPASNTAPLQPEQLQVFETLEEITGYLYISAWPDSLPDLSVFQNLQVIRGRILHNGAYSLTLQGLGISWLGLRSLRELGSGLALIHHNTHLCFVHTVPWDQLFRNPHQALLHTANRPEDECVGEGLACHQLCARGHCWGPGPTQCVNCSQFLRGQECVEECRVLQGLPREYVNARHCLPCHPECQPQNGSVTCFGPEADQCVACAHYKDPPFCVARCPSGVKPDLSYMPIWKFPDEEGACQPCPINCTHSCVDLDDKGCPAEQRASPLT
T1 sequence (P01133 971-1023, further chain): as the sequence (P01133 971-1023 partner) above
T2 sequence (P21860 20-643 limits assumed): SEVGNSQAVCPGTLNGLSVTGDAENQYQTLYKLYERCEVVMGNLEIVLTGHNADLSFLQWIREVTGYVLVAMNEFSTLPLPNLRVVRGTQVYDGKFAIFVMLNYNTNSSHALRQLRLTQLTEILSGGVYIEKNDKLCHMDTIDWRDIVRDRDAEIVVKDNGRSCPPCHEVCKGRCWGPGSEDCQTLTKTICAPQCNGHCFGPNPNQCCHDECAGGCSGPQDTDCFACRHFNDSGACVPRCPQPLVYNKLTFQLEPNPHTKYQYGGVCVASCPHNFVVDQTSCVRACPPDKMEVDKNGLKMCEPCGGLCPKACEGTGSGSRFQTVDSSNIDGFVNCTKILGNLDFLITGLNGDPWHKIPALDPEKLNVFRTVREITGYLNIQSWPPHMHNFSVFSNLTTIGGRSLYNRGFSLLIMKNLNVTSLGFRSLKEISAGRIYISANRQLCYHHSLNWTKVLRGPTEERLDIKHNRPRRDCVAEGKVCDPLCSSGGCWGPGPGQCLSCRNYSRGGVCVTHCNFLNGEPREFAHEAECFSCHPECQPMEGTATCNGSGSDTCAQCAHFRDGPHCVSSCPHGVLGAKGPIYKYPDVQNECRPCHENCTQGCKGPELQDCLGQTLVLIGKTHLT
T2 sequence (P01133 971-1023 partner): as the sequence (P01133 971-1023 partner) above

**Q.** Which results are given for `CC(C)(O)/C=C/C(=O)[C@](C)(O)[C@H]1[C@H](O)C[C@@]2(C)[C@@H]3CC=C4[C@@H](C[C@H](O)C(=O)C4(C)C)[C@]3(C)C(=O)C[C@]12C` [CuD, cucurbitacin D]?
**A.** IC50 [1]: 11.1 nM; IC50 [2]: 331 nM; IC50 [3]: 4.33 nM

Source: PMC7041627, “Cucurbitacin D Overcomes Gefitinib Resistance by Blocking EGF Binding to EGFR and Inducing Cell Death in NSCLCs” (Frontiers in Oncology, 2020)
